Key:
Assay type in all cases: cell-based
IL-6 = IL-6 inhibition in LPS-stimulated THP-1 cells (HTRF); conditions: Homo sapiens; for EC50: LPS 500 ng/mL, 22 hours, IL6 HTRF
Experimental: Human monocyte cell line (THP-1 cells; Catalog # TIB-202, ATCC, Manassas, Va.) were cultured in Roswell Park Memorial Institute (RPMI) 1640 Medium (Catalog #21870-100, Buffalo, N.Y.) with 1% L-glutamine, 1% HEPES, 1% Sodium Pyruvate, 2% Sodium Bicarbonate supplemented with 100 units/mL penicillin, 50 μg/mL streptomycin, 2-mercaptoethanol (0.05 mM) [basal medium] and 10% fetal bovine serum (Catalog #16140089, Life Technologies, Carlsbad, Calif.) at 37° C. and 5% CO2.
THP-1 cells were cultured in basal media with 1% FBS for 24 hours before the start of the assay. Each compound was dissolved in DMSO as a 10 mM stock and used to prepare compound source plates. Serial dilution (1:3, 10-point dose-response curves starting from 10 μM) and compound transfer was performed using the ECHO 550 (Labcyte, Sunnyvale, Calif.) into 384-well white low volume assay plates (Greiner Bio-One) with appropriate DMSO backfill for a final DMSO concentration of 0.1%. THP-1 cells were plated at 5000 cells/well in the 384-well plates and incubated at 37° C. for 2 h. 500 ng/mL of LPS was added after 2 hours and cells were incubated for another 22 hours at 37° C. Plates were spun in a centrifuge for 1 minute at […] and a mixture of anti-IL6 XL665, and anti-IL6 Cryptate diluted in reconstitution buffer (Cisbio Inc.) was added to each well. Following incubation for 3 hrs at room temperature, Homogeneous Time-Resolved Fluorescence (HTRF) was measured using the Envision (Perkin Elmer) at 665 nm and […]. The ratio of fluorescence at 665 nm to 620 nm was used as a readout for IL6 quantification. All samples were processed in duplicate. Readings were normalized to DMSO treated cells and normalized activities were utilized for EC50 calculations using the dose-response log (inhibitor) vs. response-variable slope (four parameters) nonlinear regression feature available in GraphPad Prism 5.0 (or Dotmatics). For EC50 of >10 μM, the percent inhibition at […] is provided.

SW480 colon cancer cells = test: Cell viability assay (CellTiter-Blue), SW480 cells; conditions: Homo sapiens, 96 h, four days, CellTiter-Blue
Experimental: Representative compounds were screened using the following assay procedure to assess the effect on cell viability as described below.
Each compound was dissolved in DMSO as a 10 mM stock and used to prepare compound source plates. Serial dilution (1:3, 8-point dose-response curves from […]) and compound transfer was performed using the ECHO 550 (Labcyte, Sunnyvale, Calif.) into 96-well clear bottom, black-walled plates (Corning-Costar).
Approximately 2×10^3 SW480 colon cancer cells were seeded into each well and allowed to incubate in the presence or absence of compound for four days at 37° C./5% CO2. Eight replicates of DMSO-treated cells served as controls and cells treated with compound were performed in duplicate.
After incubation, 20 μL of CellTiter-Blue (Promega) was added to each well allowed to incubate for approximately 3 hours. This reagent was a buffered solution which contains resazurin, metabolically active cells were able to reduce rezarurin (blue) into resorufin (pink) which was highly fluorescent. This measured fluorescence was used as a readout for cell viability.
After incubation, the plates were read at Ex 560 nm Em 590 nm (Cytation 3, BioTek). Dose-response curves were generated and EC50 concentration values were calculated using non-linear regression curve fit in the GraphPad Prism (San Diego, Calif.) or Dotmatics' Studies Software (Bishops Stortford, UK). For EC50 of >10 μM, the percent inhibition at 10 μM is provided.

[1] = tested on: primary human fibroblasts derived from IPF patients (LL29 cells) treated with TGF-β1; test: Inhibition of fibrotic process, αSMA staining in TGF-β1 treated LL29 fibroblasts; conditions: Fibroblast; for EC50: 96 h, TGF-β1 20 ng/mL, 4 days, % cells positive for αSMA
Source text: Representative compounds were screened using primary human fibroblasts (derived from IPF patients) treated with TGF-β1 to determine their ability to inhibit the fibrotic process.
Primary human fibroblasts derived from IPF patients (LL29 cells) [^1Xiaoqiu Liu, et. al., “Fibrotic Lung Fibroblasts Show Blunted Inhibition by cAMP Due to Deficient cAMP Response Element-Binding Protein Phosphorylation”, Journal of Pharmacology and Experimental Therapeutics (2005), 315(2), 678-687; ^2Watts, K. L., et. al., “RhoA signaling modulates cyclin D1 expression in human lung fibroblasts; implications for idiopathic pulmonary fibrosis”, Respiratory Research (2006), 7(1), 88] were obtained from American Type Culture Collection (ATCC) and expanded in F12 medium supplemented with 15% Fetal Bovine Serum and Penicillin/Streptomycin.
Each compound was dissolved in DMSO as a 10 mM stock and used to prepare compound source plates. Serial dilution (1:2, 11-point dose-response curves from […] to […]) and compound transfer was performed using the ECHO 550 (Labcyte, Sunnyvale, Calif.) into 384-well clear bottom assay plates (Greiner Bio-One) with appropriate DMSO backfill for a final DMSO concentration of 0.1%. LL29 cells are plated at 1,500 cells/well in 80 μL/well F12 medium supplemented with 1% Fetal Bovine Serum. One hour after addition of the cells, TGF-β1 (Peprotech; 20 ng/mL) was added to the plates to induce fibrosis (ref. 1 and 2 above). Wells treated with TGF-β1 and containing DMSO were used as controls. Cells were incubated at 37° C. and 5% CO2 for 4 days. Following incubation for 4 days, SYTOX green nucleic acid stain (Life Technologies [Thermo Fisher Scientific]) was added to the wells at a final concentration of 1 μM and incubated at room temperature for 30 min. Cells were then fixed using 4% formaldehyde (Electron Microscopy Sciences), washed 3 times with PBS followed by blocking and permeabilization using 3% Bovine Serum Albumin (BSA; Sigma) and 0.3% Triton X-100 (Sigma) in PBS. Cells were then stained with antibody specific to α-smooth muscle actin (aSMA; Abcam) (ref. 1 and 2 above) in 3% Bovine Serum Albumin (BSA; Sigma) and 0.3% Triton X-100 (Sigma) in PBS, and incubated overnight at 4° C. Cells were then washed 3 times with PBS, followed by incubation with Alexa Flor-647 conjugated secondary antibody (Life Technologies [Thermo Fisher Scientific]) and DAPI at room temperature for 1 hour. Cells were then washed 3 times with PBS and plates were sealed for imaging. aSMA staining was imaged by excitation at 630 nm and emission at 665 nm and quantified using the Compartmental Analysis program on the CellInsight CX5 (Thermo Scientific). Dead or apoptotic cells were excluded from analysis based on positive SYTOX green staining. % of total cells positive for aSMA were counted in each well and normalized to the average of 11 wells treated with TGF-β1 on the same plate using Dotmatics' Studies Software. The normalized averages (fold change over untreated) of 3 replicate wells for each compound concentration were used to create dose-responses curves and EC50 values were calculated using non-linear regression curve fit in the Dotmatics' Studies Software. For EC50 of >10 μM, the percent inhibition at 10 μM is provided.

[2] = tested on: Wnt activity (Sp5-Luc reporter, TCF/LEF binding sites) in SW480 colon carcinoma cells; test: Wnt activity screening assay, Sp5-Luc reporter gene in SW480 cells; conditions: Homo sapiens, overnight incubation
Source text: The screening assay for Wnt activity is described as follows. Reporter cell lines can be generated by stably transducing cancer cell lines (e.g., colon cancer) or primary cells (e.g., IEC-6 intestinal cells) with a lentiviral construct that includes a Wnt-responsive promoter driving expression of the firefly luciferase gene.
SW480 colon carcinoma cells were transduced with a lentiviral vector expressing luciferase with a human Sp5 promoter consisting of a sequence of eight TCF/LEF binding sites. SW480 cells stably expressing the Sp5-Luc reporter gene and a hygromycin resistance gene were selected by treatment with 150 μg/mL of hygromycin for 7 days. These stably transduced SW480 cells were expanded in cell culture and used for all further screening activities. Each compound was dissolved in DMSO as a 10 mM stock and used to prepare compound source plates. Serial dilution (1:3, 10-point dose-response curves starting from 10 μM) and compound transfer was performed using the ECHO 550 (Labcyte, Sunnyvale, Calif.) into 384-well white solid bottom assay plates (Greiner Bio-One) with appropriate DMSO backfill for a final DMSO concentration of 0.1%. For Sp5-Luc reporter gene assays, the cells were plated at 4,000 cells/well in 384-well plates with medium containing 1% fetal bovine serum and incubated overnight at 37° C. and 5% CO2. Following incubation, 20 μl of BrightGlo luminescence reagent (Promega) was added to each well of the 384-well assay plates. The plates were placed on an orbital shaker for 2 min and then luminescence was quantified using the Envision (Perkin Elmer) plate reader. Readings were normalized to DMSO only treated cells, and normalized activities were utilized for EC50 calculations using the dose-response log (inhibitor) vs. response-variable slope (four parameters) nonlinear regression feature available in GraphPad Prism 5.0 (or Dotmatics). For EC50 of >10 μM, the percent inhibition at 10 μM is provided.

| SMILES | EC50 (IL-6) [µM] | EC50 (SW480 colon cancer cells) [µM] | EC50 [2] [µM] | EC50 [1] [µM] | inhibition at 10 µM ([1]; given for EC50 >10 μM, TGF-β1, αSMA, 10 μM, read-out: percent inhibition at 10 μM) [%] | inhibition at 10 µM (IL-6; given for EC50 >10 μM, LPS, IL6, at 10 M [sic], read-out: percent inhibition at 10 M) [%] |
| --- | --- | --- | --- | --- | --- | --- |
| Cc1ccncc1-c1ccc2[nH]nc(-c3cc4c(-c5cccs5)cncc4[nH]3)c2n1 [Compound 341, 5-(4-Methylpyridin-3-yl)-3-(4-(thiophen-2-yl)-1H-pyrrolo[2,3-c]pyridin-2-yl)-1H-pyrazolo[4,3-b]pyridine] | 0.118 | 4.25 | 4.07 | 0.521 | – | – |
| c1csc(-c2cncc3[nH]c(-c4n[nH]c5ccc(-c6ccncc6)nc45)cc23)c1 [Compound 354, 5-(Pyridin-4-yl)-3-(4-(thiophen-2-yl)-1H-pyrrolo[2,3-c]pyridin-2-yl)-1H-pyrazolo[4,3-b]pyridine] | 5.8 | 1.08 | 2.23 | 1.18 | – | – |

Further lines, with some results ahead:

| EC50 (IL-6) [µM] | EC50 (SW480 colon cancer cells) [µM] | EC50 [2] [µM] | SMILES | EC50 [1] [µM] | inhibition at 10 µM ([1]; given for EC50 >10 μM, TGF-β1, αSMA, 10 μM, read-out: percent inhibition at 10 μM) [%] | inhibition at 10 µM (IL-6; given for EC50 >10 μM, LPS, IL6, at 10 M [sic], read-out: percent inhibition at 10 M) [%] |
| --- | --- | --- | --- | --- | --- | --- |
| 1.76 | 3.09 | 2.11 | CS(=O)(=O)NCc1cc(F)cc(-c2cncc3[nH]c(-c4n[nH]c5ccc(-c6cncc(CN7CCC(F)(F)C7)c6)nc45)cc23)c1 [Compound 502, N-(3-(2-(5-(5-((3,3-Difluoropyrrolidin-1-yl)methyl)pyridin-3-yl)-1H-pyrazolo[4,3-b]pyridin-3-yl)-1H-pyrrolo[2,3-c]pyridin-4-yl)-5-fluorobenzyl)methanesulfonamide] | > 10 | 25.4 | – |
| > 10 | 1.12 | 1.28 | Fc1cccc(-c2cncc3[nH]c(-c4n[nH]c5ccc(-c6cncc(OCc7ccccc7)c6)nc45)cc23)c1 [Compound 518, 5-(5-(Benzyloxy)pyridin-3-yl)-3-(4-(3-fluorophenyl)-1H-pyrrolo[2,3-c]pyridin-2-yl)-1H-pyrazolo[4,3-b]pyridine] | 1.2 | – | 35.5 |
| 2.36 | 0.498 | 3.35 | c1ncc(-c2ccc3[nH]nc(-c4cc5c(N6CCCCC6)cncc5[nH]4)c3n2)cc1OC1CCCCC1 [Compound 607, 5-(5-(Cyclohexyloxy)pyridin-3-yl)-3-(4-(piperidin-1-yl)-1H-pyrrolo[2,3-c]pyridin-2-yl)-1H-pyrazolo[4,3-b]pyridine] | 0.199 | – | – |
| 1.49 | 1.48 | 3.35 | CN(C)CCOc1cncc(-c2ccc3[nH]nc(-c4cc5ccncc5[nH]4)c3n2)c1 [Compound 659, 2-((5-(3-(1H-Pyrrolo[2,3-c]pyridin-2-yl)-1H-pyrazolo[4,3-b]pyridin-5-yl)pyridin-3-yl)oxy)-N,N-dimethylethan-1-amine] | 4.13 | – | – |

Reference: patent US10519169B2, “3-(1H-pyrrolo[2,3-C]pyridin-2-yl)-1 H-pyrazolo[4,3-B]pyridines and therapeutic uses thereof” (Samumed, LLC, priority 2015, dated 2019)
